{"source": "paper PMC6614494", "about": "“Molecular and Biochemical Characterization of a Bimodular Xylanase From Marinifilaceae Bacterium Strain SPP2” (Frontiers in Microbiology, 2019)", "molecular_target": "T1, XynSPP2 (Labilibaculum antarcticum, UniProt A0A1Y1CHM8)", "T1 construct": "gene ALGA_1465; residues 25-450, signal peptide (24 residues) removed, Fn3 + GH10 domains; 34-residue N-terminal pET-28a tag kept; E. coli BL21(DE3)", "T1 sequence (A0A1Y1CHM8 entry or part of it)": "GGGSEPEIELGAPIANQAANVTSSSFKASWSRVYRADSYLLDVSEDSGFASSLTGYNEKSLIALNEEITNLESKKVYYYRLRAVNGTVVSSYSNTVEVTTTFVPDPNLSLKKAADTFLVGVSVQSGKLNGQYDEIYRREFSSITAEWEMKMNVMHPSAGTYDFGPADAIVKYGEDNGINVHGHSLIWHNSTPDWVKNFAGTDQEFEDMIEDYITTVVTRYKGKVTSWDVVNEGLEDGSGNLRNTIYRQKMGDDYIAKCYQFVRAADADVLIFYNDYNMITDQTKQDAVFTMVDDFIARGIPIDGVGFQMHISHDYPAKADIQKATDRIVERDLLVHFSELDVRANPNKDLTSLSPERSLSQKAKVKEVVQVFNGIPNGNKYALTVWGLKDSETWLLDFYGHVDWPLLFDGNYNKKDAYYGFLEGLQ", "test": "TLC of hydrolysis products", "type": "biochemical", "details": "20 uM substrate, citrate-phosphate pH 6.5", "data": [{"smiles": "OC1OC[C@@H](O[C@@H]2OC[C@@H](O[C@@H]3OC[C@@H](O[C@@H]4OC[C@@H](O[C@@H]5OC[C@@H](O)[C@H](O)[C@H]5O)[C@H](O)[C@H]4O)[C@H](O)[C@H]3O)[C@H](O)[C@H]2O)[C@H](O)[C@H]1O", "note": "(some centres unmarked) [X5, xylopentaose]", "values": [{"measurement": "TLC of hydrolysis products", "value": "Degradations of xylopentaose and xylohexaose by XynSPP2 were largely similar"}]}, {"smiles": "OC1OC[C@@H](O[C@@H]2OC[C@@H](O[C@@H]3OC[C@@H](O[C@@H]4OC[C@@H](O)[C@H](O)[C@H]4O)[C@H](O)[C@H]3O)[C@H](O)[C@H]2O)[C@H](O)[C@H]1O", "note": "(some centres unmarked) [X4, xylotetraose]", "values": [{"measurement": "TLC of hydrolysis products", "value": "XynSPP2 hydrolyzed xylotetraose to xylotriose (major) and xylobiose"}]}]}
